According to patent US9828375B2, “4-position substituted pyrazolopyrimidine derivative, and use thereof in drug preparation” (Guangxi Wuzhou Pharmaceuticals (Group) Co., Ltd., priority 2012, dated 2017):

Columns and labels:
FLT3 = molecular target: T1, FLT3 (Homo sapiens, UniProt P36888); experiment: Kinase inhibition activity test, isotope labeling (γ-33P-ATP): FLT3; assay type: biochemical; details: for IC50: ATP 200 μM, read-out: FLT3 IC50 value (inhibitory activity value); for Activity inhibition rate Flt3 (h) / inhibition at 10 µM: test compound at a concentration of 10 μM; for inhibition at 10 µM: read-out: Activity inhibition rate Flt3 (h)
T1 sequence (P36888 27-993): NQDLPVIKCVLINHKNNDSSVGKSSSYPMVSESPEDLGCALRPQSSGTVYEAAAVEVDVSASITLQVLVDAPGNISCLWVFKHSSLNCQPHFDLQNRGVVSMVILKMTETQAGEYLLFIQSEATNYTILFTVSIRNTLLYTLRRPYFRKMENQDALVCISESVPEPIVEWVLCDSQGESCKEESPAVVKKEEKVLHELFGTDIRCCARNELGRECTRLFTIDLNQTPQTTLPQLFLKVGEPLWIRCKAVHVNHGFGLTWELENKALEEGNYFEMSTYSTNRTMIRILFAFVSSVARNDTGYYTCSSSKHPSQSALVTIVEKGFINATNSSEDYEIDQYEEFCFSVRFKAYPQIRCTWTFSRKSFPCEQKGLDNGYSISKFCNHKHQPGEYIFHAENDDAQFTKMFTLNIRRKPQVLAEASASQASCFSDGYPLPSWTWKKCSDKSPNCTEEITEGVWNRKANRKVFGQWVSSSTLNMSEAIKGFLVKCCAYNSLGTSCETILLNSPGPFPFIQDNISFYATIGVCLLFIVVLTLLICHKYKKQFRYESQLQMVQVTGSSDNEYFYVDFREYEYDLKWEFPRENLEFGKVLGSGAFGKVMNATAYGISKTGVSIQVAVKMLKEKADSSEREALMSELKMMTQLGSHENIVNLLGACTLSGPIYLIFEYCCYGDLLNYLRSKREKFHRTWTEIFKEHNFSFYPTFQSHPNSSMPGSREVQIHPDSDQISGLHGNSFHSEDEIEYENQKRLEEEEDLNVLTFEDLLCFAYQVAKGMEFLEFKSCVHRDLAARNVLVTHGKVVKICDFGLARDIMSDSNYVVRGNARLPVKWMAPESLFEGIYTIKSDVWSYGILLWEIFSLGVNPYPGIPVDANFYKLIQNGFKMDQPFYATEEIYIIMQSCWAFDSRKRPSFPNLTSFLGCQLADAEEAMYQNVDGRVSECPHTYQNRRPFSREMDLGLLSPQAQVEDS
Method: (§1) The purpose of this experiment was to test the inhibitory activity of the compound of the invention for in vitro kinase with the isotope labeling method (the γ phosphate group on ATP was labeled). In this experiment, the in vitro activity inhibition of such kinases as FLT3, VEGFR2, FLT1, FLT4, RET, c-RAF, B-RAF, c-KIT, PDGFα, PDGFβ, FGFR2, FGFR1, EphA2, EphB2, SRC, ABL, ALK and Met was tested respectively. Staurosporine was reference molecule (or referred to as positive control). The kinase inhibition activity of the test compound was expressed by half-inhibitory concentration (IC50) or the kinase activity inhibition rate of the test compound at a concentration of 10 μM. The IC50 value could be obtained by calculating the kinase activity inhibition rate of the test compound at different concentrations.
(§2) 20 mM 3-(N-morpholinyl)propanesulfonic acid (MOPS); 1 mM ethylenediaminetetraacetic acid (EDTA), 0.01% Brij 35 (Brij-35), 5% glycerol, 0.1% mercaptoethanol, 1 mg/mL bovine serum albumin (BSA), 10 mM manganous dichloride solution (MnCl2), 0.1 mg/mL glutamic acid/tyrosine (4:1) polypeptide (poly(Glu, Tyr)4:1), 50 μM EAIYAAPFAKKK (substrate of FLT3), 0.33 mg/mL myelin basic protein (substrate of VEGFR2), 250 μM KKKSPGEYVNIEFG (substrate of FLT1(h)), 500 μM GGEEEEYFELVKKKK (substrate of FLT4(h)), 250 μM KKKSPGEYVNIEFG (substrate of RET), 0.66 mg/mL myelin basic protein (substrate of C-RAF), 250 μM GGMEDIYFEFMGGKKK (substrate of c-Kit), 250 μM GGMEDIYFEFMGGKKK (substrate of PDGFα), 250 μM KKKSPGEYVNIEFG (substrate of FGFR1), […] GGEEEEYFELVKKKK (substrate of SRC), 50 μM EAIYAAPFAKKK (substrate of ABL), 250 μM KKKSPGEYVNIEFG (substrate of ALK), 250 μM KKKSPGEYVNIEFG (substrate of Met(h)), 10 mM magnesium acetate and γ-^33 P-ATP solution, stop buffer (3% phosphate buffer), washing buffer (75 mM phosphate solution), methanol, Filtermat A membrane, FLT3, VEGFR2, FLT3, VEGFR2, FLT1, FLT4, RET, c-RAF, B-RAF, c-KIT, PDGFRα, PDGFRβ, FGFR2, FGFR1, EphA2, EphB2, SRC, ABL, ALK, Met and other kinases, and the test compounds.
(§3) Buffers (8 mM MOPS with pH value of 7.0, 0.2 mM EDTA and 10 mM MnCl2), (5-10 mU) kinases to be tested (FLT3, VEGFR2, FLT1, FLT4, RET, c-RAF, B-RAF, c-KIT, PDGFRα, PDGFRβ, FGFR2, FGFR1, EphA2, EphB2, SRC, ABL, ALK and Met), substrates of kinases to be tested (refer to experimental materials), 10 mM magnesium acetate and γ-^33 P-ATP solution, and test compounds at different concentrations were added to a reaction tube orderly. […] Reaction was terminated with 5 μL 3% phosphate buffer finally, and 10 μL reaction solution was titrated to the Filtermat A membrane; solution was washed for 3 times with 75 mM phosphate solution with each time lasting 5 minutes, and then washed once with methanol. Finally, the Filtermat A membrane was dried, and scintillation counting was performed on the membrane, with scintillation count reflecting the phosphorylation degree of the substrates, so that the activity inhibition of kinase could be characterized.

PDGFRα = PDGFRα (Homo sapiens, UniProt P16234); experiment: Kinase inhibition activity test, isotope labeling: PDGFRα; assay type: biochemical; details: for Activity inhibition rate PDGFRα (h) / inhibition at 10 µM: test compound at a concentration of 10 μM; for inhibition at 10 µM: read-out: Activity inhibition rate PDGFRα (h); for IC50: ATP 120 μM, read-out: PDGFRα IC50 value (inhibitory activity value)
Method: as §1, §2, §3

Sequence of PDGFRα (P16234 24-1089): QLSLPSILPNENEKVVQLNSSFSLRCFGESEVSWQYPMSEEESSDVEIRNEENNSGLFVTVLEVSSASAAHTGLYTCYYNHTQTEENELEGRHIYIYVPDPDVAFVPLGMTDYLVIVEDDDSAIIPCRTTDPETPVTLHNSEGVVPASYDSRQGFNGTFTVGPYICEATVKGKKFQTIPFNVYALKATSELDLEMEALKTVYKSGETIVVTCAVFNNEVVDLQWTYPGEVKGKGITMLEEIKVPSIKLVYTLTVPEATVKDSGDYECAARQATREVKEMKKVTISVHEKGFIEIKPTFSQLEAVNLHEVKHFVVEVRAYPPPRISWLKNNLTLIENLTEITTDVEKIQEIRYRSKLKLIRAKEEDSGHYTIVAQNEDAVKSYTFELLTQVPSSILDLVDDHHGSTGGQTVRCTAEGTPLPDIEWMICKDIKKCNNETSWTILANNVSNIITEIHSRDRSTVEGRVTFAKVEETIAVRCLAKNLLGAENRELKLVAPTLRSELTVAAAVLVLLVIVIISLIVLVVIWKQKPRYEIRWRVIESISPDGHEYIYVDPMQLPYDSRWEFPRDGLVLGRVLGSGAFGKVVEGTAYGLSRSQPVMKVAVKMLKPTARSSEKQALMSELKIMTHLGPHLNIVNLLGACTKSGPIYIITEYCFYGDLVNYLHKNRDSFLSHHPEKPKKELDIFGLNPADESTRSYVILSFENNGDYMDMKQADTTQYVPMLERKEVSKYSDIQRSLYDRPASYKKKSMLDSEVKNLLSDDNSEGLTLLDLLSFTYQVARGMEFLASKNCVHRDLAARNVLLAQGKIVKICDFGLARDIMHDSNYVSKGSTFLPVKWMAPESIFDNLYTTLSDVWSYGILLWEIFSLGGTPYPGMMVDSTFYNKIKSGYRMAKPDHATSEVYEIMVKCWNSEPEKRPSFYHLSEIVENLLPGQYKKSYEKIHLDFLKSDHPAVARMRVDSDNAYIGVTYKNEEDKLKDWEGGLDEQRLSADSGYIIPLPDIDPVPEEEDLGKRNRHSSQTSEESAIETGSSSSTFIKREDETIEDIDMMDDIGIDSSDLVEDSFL

IC50 (FLT3)	Activity inhibition rate Flt3 (h) (FLT3)	Activity inhibition rate PDGFRα (h) (PDGFRα)	inhibition at 10 µM (FLT3)	inhibition at 10 µM (PDGFRα)	IC50 (PDGFRα)	Activity inhibition rate Flt3 (h) (FLT3; 10 µM)	Compound
38 nM	100%	64%	–	–	–	–	1-(4-((1H-pyrazolopyrimidine-4-yl)oxy)-3-fluorophenyl)-3-(3-trifluoromethoxy)phenyl)urea [4a-8]
–	66%	93%	–	–	–	–	1-(4-((1H-pyrazolopyrimidine-4-yl)oxy)phenyl)-3-(methylcyclohexyl)urea [4a-20]
27 nM	–	–	100%	63%	–	–	O=C(Nc1ccc(Oc2ncnc3[nH]ncc23)cc1)Nc1ccc(C(F)(F)F)cc1 [4a-1]
39 nM	100%	93%	–	–	223 nM	–	O=C(Nc1ccc(Oc2ncnc3[nH]ncc23)cc1)Nc1ccc(Cl)c(C(F)(F)F)c1 [4a-2]
36 nM	100%	89%	–	–	–	–	CC(C)c1cccc(NC(=O)Nc2ccc(Oc3ncnc4[nH]ncc34)c(F)c2)c1 [4a-7, 1-(4-((1H-pyrazolopyrimidine-4-yl)oxy)-3-fluorophenyl)-3-(3-isopropylphenyl)urea]
18 nM	100%	24%	–	–	–	–	O=C(Nc1ccc(C(F)(F)F)cc1)Nc1ccc(Oc2ncnc3[nH]ncc23)c(F)c1 [4a-9, 1-(4-((1H-pyrazolopyrimidine-4-yl)oxy)-3-fluorophenyl)-3-(4-(trifluoromethyl)phenyl)urea]
25 nM	100%	52%	–	–	–	–	O=C(Nc1ccc(Oc2ncnc3[nH]ncc23)c(F)c1)Nc1ccc(Cl)c(C(F)(F)F)c1 [4a-10, 1-(4-((1H-pyrazolopyrimidine-4-yl)oxy)-3-fluorophenyl)-3-(4-chloro-3-(trifluoromethyl)phenyl)urea]
61 nM	100%	52%	–	–	–	–	O=C(Nc1ccc(Oc2ncnc3[nH]ncc23)cc1)Nc1cc(C(F)(F)F)cc(C(F)(F)F)c1 [4a-12, 1-(4-((1H-pyrazolopyrimidine-4-yl)oxy)phenyl)-3-(3,5-bis(trifluoromethyl)phenyl)urea]
24 nM	100%	63%	–	–	–	–	O=C(Nc1ccc(Oc2ncnc3[nH]ncc23)cc1)Nc1ccc(C(F)(F)F)cc1Cl [4a-13]
89 nM	100%	48%	–	–	–	–	O=C(Nc1ccccc1)Nc1ccc(Oc2ncnc3[nH]ncc23)cc1 [4a-15, 1-(4-((1H-pyrazolopyrimidine-4-yl)oxy)phenyl)-3-phenylurea]
–	–	–	76%	–	–	–	O=C(Nc1ccc(Oc2ncnc3[nH]ncc23)cc1)Nc1ccc(N2CCOCC2)cc1 [4a-16, 1-(4-((1H-pyrazolopyrimidine-4-yl)oxy)phenyl)-3-(4-morpholinylphenyl)urea]
–	81%	96%	–	–	–	–	C[C@H](NC(=O)Nc1ccc(Oc2ncnc3[nH]ncc23)cc1)c1ccccc1 [4a-18, (S)-1-(4-((1H-pyrazolopyrimidine-4-yl)oxy)phenyl)-3-(1-phenethyl)urea]
–	73%	84%	–	–	–	–	C[C@@H](NC(=O)Nc1ccc(Oc2ncnc3[nH]ncc23)cc1)c1ccccc1 [4a-19, (R)-1-(4-((1H-pyrazolopyrimidine-4-yl)oxy)phenyl)-3-(1-phenethyl)urea]
17 nM	100%	>50%	–	–	–	–	CC(C)(C)c1cc(NC(=O)Nc2ccc(Oc3ncnc4[nH]ncc34)cc2)n(-c2ccccc2)n1 [4a-24]
16 nM	100%	>50%	–	–	1400 nM	–	CC(C)(C)c1cc(NC(=O)Nc2ccc(Oc3ncnc4[nH]ncc34)cc2)on1 [4a-25]
8 nM	–	–	100%	> 50%	–	–	CC(C)(C)c1cc(NC(=O)Nc2ccc(Oc3ncnc4[nH]ncc34)cc2)no1 [4a-26]
–	–	–	100%	> 50%	–	–	O=C(Nc1ccc(Oc2ncnc3[nH]ncc23)cc1)Nc1cc(C(F)(F)F)on1 [4a-28]
5 nM	100%	>50%	–	–	< 10000 nM	–	CC(C)(C)c1cc(NC(=O)Nc2ccc(Oc3ncnc4[nH]ncc34)c(F)c2)no1 [4a-31]
–	–	–	30%	> 30%	–	–	O=C(Nc1cccc(Nc2ncnc3[nH]ncc23)c1)Nc1ccc(F)c(Cl)c1 [4b-1]
–	–	–	–	> 30%	–	0%	C[C@@H](NC(=O)Nc1ccc(Nc2ncnc3[nH]ncc23)cc1)c1ccccc1 [4b-2, (R)-1-(4-(1H-pyrazolopyrimidine-4-amido)phenyl)-3-(1-phenethyl)urea]
–	–	–	72%	> 30%	–	–	COc1cccc(NC(=O)Nc2ccc(Nc3ncnc4[nH]ncc34)cc2)c1 [4b-3]
–	–	>30%	–	–	–	59%	C[C@H](NC(=O)Nc1ccc(Nc2ncnc3[nH]ncc23)cc1)c1ccccc1 [4b-4]
–	–	–	95%	> 30%	–	–	O=C(Nc1ccc(NC(=O)N2C=NC=C3NNC=C32)cc1)Nc1ccc(Cl)c(C(F)(F)F)c1 [4b-5, 1-(4-(1H-pyrazolopyrimidine-4-amido)phenyl)-3-(4-chloro-3-(trifluoromethyl)phenyl)urea]
–	–	–	81%	> 30%	–	–	COc1ccc(NC(=O)Nc2ccc(NC(=O)N3C=NC=C4NNC=C43)cc2)cc1 [4b-6, 1-(4-(1H-pyrazolopyrimidine-4-amido)phenyl)-3-(4-methoxyphenyl)urea]

Compound	IC50 (FLT3)	Activity inhibition rate Flt3 (h) (FLT3)	Activity inhibition rate PDGFRα (h) (PDGFRα)	inhibition at 10 µM (FLT3)	inhibition at 10 µM (PDGFRα)	IC50 (PDGFRα)	Activity inhibition rate Flt3 (h) (FLT3; 10 µM)
O=C(Nc1ccc(Oc2ncnc3[nH]ncc23)cc1)Nc1cccc(C(F)(F)F)c1 [4a-6]	9 nM	–	–	100%	97%	322 nM	–
